The target of this assay is VDR (Homo sapiens, UniProt P11473). The experiment in a line: Luminescent proximity homogeneous assay (AlphaScreen): interaction of purified VDR, RxR and TRAP220 coactivator fragment. Type of assay: biochemical. To be noted: for EC50: n >= 3, read-out: Activity (pEC50) (converted); for Activity in the dark: dark (trans), concentrations up to 10 μM. The method, then: The activity of all molecules was evaluated using a luminescent proximity homogeneous assay to study interactions between purified VDR, RxR and a fragment of the transcriptional coactivator TRAP220 (Supporting Information). This method allowed us to monitor the interaction between TRAP220 and the activated VDR-RxR heterodimer, which is of mechanistic and physiological significance. Both the activation of VDR and the VDR-RxR heterodimer formation are necessary to promote the whole complex association. This system efficiently includes conformational events of the receptor upon activation that go beyond a simple binding measurement. […]
Sequence of VDR (P11473 whole entry, the tested form may be a part): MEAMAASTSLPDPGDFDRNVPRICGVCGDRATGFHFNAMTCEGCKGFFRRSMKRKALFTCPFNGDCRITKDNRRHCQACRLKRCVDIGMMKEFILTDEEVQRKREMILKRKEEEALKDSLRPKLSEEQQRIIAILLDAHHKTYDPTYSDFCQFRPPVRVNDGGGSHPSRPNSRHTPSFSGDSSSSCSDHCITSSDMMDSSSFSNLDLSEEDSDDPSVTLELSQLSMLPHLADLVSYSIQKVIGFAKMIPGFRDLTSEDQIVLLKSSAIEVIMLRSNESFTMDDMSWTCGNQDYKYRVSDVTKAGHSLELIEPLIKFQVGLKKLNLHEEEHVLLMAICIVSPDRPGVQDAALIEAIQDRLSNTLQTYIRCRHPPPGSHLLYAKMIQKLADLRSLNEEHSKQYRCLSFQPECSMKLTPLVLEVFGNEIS
Sequence of VDR (P19793 whole entry partner, the tested form may be a part): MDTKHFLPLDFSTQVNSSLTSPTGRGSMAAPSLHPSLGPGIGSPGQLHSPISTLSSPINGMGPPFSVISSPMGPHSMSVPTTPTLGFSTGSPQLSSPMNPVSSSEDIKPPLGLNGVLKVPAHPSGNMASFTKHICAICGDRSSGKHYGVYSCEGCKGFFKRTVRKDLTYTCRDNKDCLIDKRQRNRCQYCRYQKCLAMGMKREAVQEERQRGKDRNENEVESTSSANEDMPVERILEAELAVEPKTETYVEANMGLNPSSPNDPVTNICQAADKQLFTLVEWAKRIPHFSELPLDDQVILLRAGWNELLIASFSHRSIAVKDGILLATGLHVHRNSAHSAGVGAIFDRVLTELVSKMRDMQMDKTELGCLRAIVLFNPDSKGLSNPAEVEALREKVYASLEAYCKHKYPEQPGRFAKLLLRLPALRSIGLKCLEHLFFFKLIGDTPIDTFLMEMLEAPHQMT
Sequence of VDR (Q15648 whole entry partner, the tested form may be a part): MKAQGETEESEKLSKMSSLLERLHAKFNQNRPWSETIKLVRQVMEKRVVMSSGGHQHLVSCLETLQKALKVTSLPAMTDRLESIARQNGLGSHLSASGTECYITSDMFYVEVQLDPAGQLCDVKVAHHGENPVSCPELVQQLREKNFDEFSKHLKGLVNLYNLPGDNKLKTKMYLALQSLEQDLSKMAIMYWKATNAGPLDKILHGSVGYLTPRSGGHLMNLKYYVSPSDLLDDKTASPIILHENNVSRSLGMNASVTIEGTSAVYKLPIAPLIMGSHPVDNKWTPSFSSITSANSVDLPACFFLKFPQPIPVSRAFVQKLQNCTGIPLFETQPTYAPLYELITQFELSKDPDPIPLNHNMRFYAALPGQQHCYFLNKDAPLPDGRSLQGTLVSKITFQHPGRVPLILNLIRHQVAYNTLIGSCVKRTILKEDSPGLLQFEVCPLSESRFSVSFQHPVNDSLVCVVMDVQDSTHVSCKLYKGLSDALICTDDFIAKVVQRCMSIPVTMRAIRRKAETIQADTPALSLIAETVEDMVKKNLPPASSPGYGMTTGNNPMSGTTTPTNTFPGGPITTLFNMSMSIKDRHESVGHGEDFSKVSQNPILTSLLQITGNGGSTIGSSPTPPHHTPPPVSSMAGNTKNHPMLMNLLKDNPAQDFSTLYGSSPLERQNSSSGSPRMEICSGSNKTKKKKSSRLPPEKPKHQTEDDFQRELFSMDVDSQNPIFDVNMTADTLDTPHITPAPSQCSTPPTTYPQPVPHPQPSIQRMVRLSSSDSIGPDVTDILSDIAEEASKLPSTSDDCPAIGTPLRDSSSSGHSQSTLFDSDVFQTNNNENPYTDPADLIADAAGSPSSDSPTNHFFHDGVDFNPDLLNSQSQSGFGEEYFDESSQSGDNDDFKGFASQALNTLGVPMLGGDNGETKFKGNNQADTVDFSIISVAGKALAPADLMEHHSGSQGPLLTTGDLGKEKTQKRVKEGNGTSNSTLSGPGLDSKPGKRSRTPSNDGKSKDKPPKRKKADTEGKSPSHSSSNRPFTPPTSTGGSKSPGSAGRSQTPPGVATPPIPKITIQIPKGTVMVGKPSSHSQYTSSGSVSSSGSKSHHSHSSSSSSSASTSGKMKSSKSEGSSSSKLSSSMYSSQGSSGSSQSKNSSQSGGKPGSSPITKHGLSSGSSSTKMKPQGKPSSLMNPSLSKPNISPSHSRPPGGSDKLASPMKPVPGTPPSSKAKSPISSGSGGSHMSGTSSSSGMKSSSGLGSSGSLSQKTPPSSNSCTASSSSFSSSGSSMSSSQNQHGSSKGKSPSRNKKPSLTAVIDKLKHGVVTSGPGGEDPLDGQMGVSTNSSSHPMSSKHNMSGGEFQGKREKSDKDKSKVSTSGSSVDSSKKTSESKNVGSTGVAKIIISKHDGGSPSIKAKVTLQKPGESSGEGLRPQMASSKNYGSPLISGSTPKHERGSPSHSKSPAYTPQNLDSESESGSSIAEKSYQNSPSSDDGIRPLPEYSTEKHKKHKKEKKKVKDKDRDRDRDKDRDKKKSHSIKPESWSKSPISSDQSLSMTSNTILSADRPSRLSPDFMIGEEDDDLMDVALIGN
The activity of all molecules was evaluated using an in-vitro luminescent proximity homogeneous assay by using the Alphascreen technology (Cat No. 6760619R, Perkin Elmer, now Revvity). In a transparent 96-well preplate, 10X concentrations of the compounds were prepared in assay buffer (0.1% bovine serum albumin, 2 mM 1,4-dithiothreitol, 25 mM HEPES and 100 mM NaCl; pH 7.3). LSN2148936 was used as positive control. Purified histidine-tagged VDR (44 µM), flag-RxRa (5.7 µM), biotin tagged TRAP220 transcriptional coactivator (500 µM), and the donor and acceptor beads from the AlphaScreen kit (2 µL/mL each), were diluted in assay buffer. In the dark, 6 µL/well of each test compound were pipetted on a white, shallow 96-well ProxiPlateTM […]
(Perkin Elmer, now Revvity, Cat.No. 6006290) in duplicate. Immediately, 54 µL of the protein solution were added and the plate was covered and incubated for 30 min at room temperature in the dark. Meanwhile, the plate with the 10X dilutions was illuminated at 365 nm for 3 min in a 96-well DED array plate (LEDA Teleopto), to allow the photoconversion of the molecules to their cis configuration. The illuminated compounds were mixed with the protein solution and incubated as described above for the plate in the dark. After the incubation time, the counts of both, the dark and illuminated plates, were measured in a Tecan Spark 20M Multimode plate reader with defined settings (excitation: 680 nm, emission: 520-620 nm, excitation time: 100ms, integration time: 300 ms). Biotinylated-His6 peptide (PerkinElmer) was used as a quality control reagent for AlphaScreen® assays and to evaluate compound interaction with the method. The raw data were normalized to the effect of the buffer (0%) and the maximum response obtained with LSN2148936 (100%). Dose-response curves and EC50 values were calculated with Graphpad software. Each experiment was performed in triplicate, with 2 replicates per plate.
4. Hydrogen/deuterium exchange coupled to mass spectrometry (HDX-MS)
The HDX-MS experiments were performed with an in-house automated modular system interfaced with an Orbitrap Exploris 480 mass spectrometer.1 Two inter-day experiments were conducted: one in the dark (first day) and one illuminated with 365 nm light (second day). Sample preparation and on-exchange reactions were performed on opaque plates (VWR® Real-Time […]
mm, Part Nº BC5226) light source was positioned above the Tecan system used for sample preparation. The distance between the UV light and the opaque plates was 80 cm. The 365 nm light illuminated the sample preparation process and the on-exchange reaction on the second day.
A 10 µM VDR-LBD protein stock solution was prepared in 20 mM HEPES buffer (with 150 mM NaCl, 10 mM D-L Methionine and 5 mM DTT) at pH 7.5. The compound 11b was prepared at 10 mM in DMSO. The protein: compound-complex (1:10 molar ratio) was pre-incubated for 1h before the first on-exchange reaction. The HDX reaction was initiated by a 5-fold dilution of the protein stock solution, in the presence and absence of compound 11b, in the corresponding Deuterated buffer at room temperature. Samples were prepared in parallel with three replicates of […]
time point, HDX reactions were quenched with a solution of 3 M Urea and 1% TFA (pH 2.5) followed by online proteolysis with an in-house Pepsin immobilized column and desalting […]
(Bead proximity is the source of the signal in Alpha formats.)

[1] abbreviates: after illumination (365 nm) for 3 min, mean ± SEM.
The mark [2] stands for this setting: after illumination (365 nm) for 3 min, normalized to maximum response of LSN2148936 (100%), mean ± SEM.

Take `Cc1cc(OCC(O)C(C)(C)C)ccc1/N=N/c1cccc(-c2ccc(C(=O)O)cc2C)c1` (centres unmarked) [Compound 11d]: the EC50 under setting [1] was 209 nM. Further, the maximum response (Emax) (in general, the size of the effect at its maximum, as opposed to the concentration needed) under setting [2] is 93 ± 6.73%.

As to `Cc1cc(/N=N/c2cccc(-c3ccc(CO)cc3)c2)ccc1OCC(O)C(C)(C)C` (centres unmarked) [Compound 12a], the EC50 under setting [1] was 339 nM. The compound further had an Emax under setting [2] of 31 ± 3.13%.

For the compound `COC(=O)c1ccc(-c2cccc(/N=N/c3ccc(OCC(O)C(C)(C)C)cc3C)c2)c(C)c1` (centres unmarked) [Compound 10d], the EC50 under setting [1] is 813 nM. Besides, under setting [2], the maximal response (Emax) is 30 ± 1.71%.

For `COC(=O)c1ccc(-c2cccc(/N=N/c3ccc(OCC(O)C(C)(C)C)cc3C)c2)cc1` (centres unmarked) [Compound 10b], the EC50 under setting [1] was 100 nM. Under setting [2], the Emax was 44 ± 0.66%.

Regarding `COC(=O)c1ccc(-c2cccc(/N=N/c3ccc(OCC(O)C(C)(C)C)c(C)c3)c2)cc1` (centres unmarked) [Compound 10a], the EC50 under setting [1] is 1100 nM. This compound registered a maximum response (Emax) under setting [2] of 23 ± 2.65%.

Take `Cc1cc(OCC(O)C(C)(C)C)ccc1N=Nc1cccc(-c2ccc(C(=O)O)cc2)c1` (centres unmarked) [Compound 11b]: the “Activity in the dark” value was “inactive”. Also, the EC50 under setting [1] is 58.9 nM. For the same compound, the Emax under setting [2] is over 80%. The “Activity (Emax)” value (after illumination (365 nm) for 3 min, normalized to maximum response of LSN2148936 (100%), mean ± SEM, listed as 11b (PhotoVDRM)) is reported as 84 ± 2.62%. Moreover, the antagonist activity result (several concentrations with LSN2148936 at 300nM, dark or 365 nm) was “does no act as antagonist”.

As for `Cc1cc(/N=N/c2cccc(-c3ccc(C(=O)O)cc3C)c2)ccc1OCC(O)C(C)(C)C` (centres unmarked) [Compound 11c], the EC50 under setting [1] was 575 nM. Under setting [2], this compound had a maximal response (Emax) of 68 ± 3.73%.

In the case of `Cc1cc(OCC(O)C(C)(C)C)ccc1/N=N/c1cccc(-c2ccc(CO)cc2)c1` (centres unmarked) [Compound 12b], under setting [1], the EC50 is 794 nM. Under setting [2], this compound gave a maximal effect (Emax) of 44 ± 5.37%.

In the case of `Cc1cc(OCC(O)C(C)(C)C)ccc1/N=N/c1cccc(-c2ccc(CO)cc2C)c1` (centres unmarked) [Compound 12d], the EC50 under setting [1] is 95.5 nM. Also, under setting [2], the maximal effect (Emax) came out at 61 ± 2.01%.

On to `Cc1cc(/N=N/c2cccc(-c3ccc(C(=O)O)cc3)c2)ccc1OCC(O)C(C)(C)C` (centres unmarked) [Compound 11a], for which the “Activity in the dark” value is “small increase in the activity”. Besides, the EC50 under setting [1] is 1260 nM. The Emax under setting [2] was determined as 60 ± 1.26%.

In the case of `COC(=O)c1ccc(-c2cccc(/N=N/c3ccc(OCC(O)C(C)(C)C)c(C)c3)c2)c(C)c1` (centres unmarked) [Compound 10c], under setting [1], the EC50 is 1860 nM. Also, the maximal effect (Emax) under setting [2] amounted to 29 ± 4.31%.

Source of the values: article PMC12746157, “Light-Regulated Agonists Spatiotemporally Activating the Vitamin D Receptor Mitigate Psoriasis-like Inflammation in Mice without Inducing Hypercalcemia” (ACS Central Science, 2025).
